For one test, the species on record is Homo sapiens. As to the kind of experiment: Compound was evaluated for the inhibition of U-46,619 induced aggregation of human platelet rich plasma. The format is functional.
For another test, the target named is T1, Thromboxane A2 receptor (Homo sapiens, UniProt P21731).
T1 sequence (P21731 whole entry): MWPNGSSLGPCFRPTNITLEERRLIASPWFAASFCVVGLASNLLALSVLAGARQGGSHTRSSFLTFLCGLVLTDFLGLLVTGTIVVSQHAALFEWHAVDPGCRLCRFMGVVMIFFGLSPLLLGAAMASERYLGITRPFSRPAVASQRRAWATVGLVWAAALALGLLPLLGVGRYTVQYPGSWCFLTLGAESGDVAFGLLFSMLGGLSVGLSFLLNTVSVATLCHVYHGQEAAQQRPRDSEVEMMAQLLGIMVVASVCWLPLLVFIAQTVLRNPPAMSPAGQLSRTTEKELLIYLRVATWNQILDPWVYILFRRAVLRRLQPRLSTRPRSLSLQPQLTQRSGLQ
In words: Compound was evaluated for the competitive binding of [3H]U-46619 to washed human platelets at the Thromboxane A2 receptor.

Regarding `O=C(O)CCC/C=C\C[C@H]1C2COC(C2)[C@@H]1CNNC(=O)Nc1ccccc1` (stereo partly drawn), in the test listed under Homo sapiens, half-maximal inhibition (IC50) was put at 7 µM. Turning to `CCCCCCNC[C@H]1C2CC(CO2)[C@@H]1C/C=C\CCCC(=O)O` (stereo partly drawn), the IC50 in the test listed under Homo sapiens was 22 µM; at Thromboxane A2 receptor, 25 µM.

As a reminder, the IC50 is the concentration that inhibits the measured activity by half.
